Results published in ChEMBL document CHEMBL5241112, “Insights into the recent progress in the medicinal chemistry of pyranopyrimidine analogs” (RSC Med Chem, 2022).
Converted amounts (≈) assume the structure as drawn.

Key:
HepG2 [1] = assay: Antiproliferative activity against human HepG2 cells assessed as reduction in cell proliferation; format: functional, cell-based
MCF7 [2] = assay: Antiproliferative activity against human MCF7 cells assessed as reduction in cell proliferation; format: functional, cell-based
[3] = Antiproliferative activity against human […] cells assessed as reduction in cell proliferation; format: functional, cell-based
HCT-116 = assay: Anticancer activity against human HCT-116 cells assessed as reduction in cell viability incubated for 24 hrs by MTT colorimetric assay; format: functional, cell-based; settings: HCT-116, 24 h
HepG2 [4] = assay: Anticancer activity against human HepG2 cells assessed as reduction in cell viability incubated for 24 hrs by MTT colorimetric assay; format: functional, cell-based; settings: HepG2, 24 h
MCF7 [5] = assay: Anticancer activity against human MCF7 cells assessed as reduction in cell viability incubated for 24 hrs by MTT colorimetric assay; format: functional, cell-based; settings: MCF7, 24 h
[6] = Antioxidant activity assessed as DPPH radical scavenging activity; format: functional
[7] = Antioxidant activity assessed as H2O2 radical scavenging activity; format: functional
[8] = Antioxidant activity assessed as NO radical scavenging activity; format: functional
Staphylococcus aureus [9] = assay: Antibacterial activity against Staphylococcus aureus NCTC-7447 assessed as diameter of inhibition zone incubated for 24 hrs by disc diffusion method; format: functional
Bacillus cereus = assay: Antibacterial activity against Bacillus cereus ATCC-14579 assessed as diameter of inhibition zone incubated for 24 hrs by disc diffusion method; format: functional
Serratia marcescens = assay: Antibacterial activity against Serratia marcescens IMRU-70 assessed as diameter of inhibition zone incubated for 24 hrs by disc diffusion method; format: functional
Proteus mirabilis = assay: Antibacterial activity against Proteus mirabilis NTCC-289 assessed as diameter of inhibition zone incubated for 24 hrs by disc diffusion method; format: functional
Aspergillus ochraceus = assay: Antifungal activity against Aspergillus ochraceus AUCC-230 assessed as diameter of inhibition zone incubated for 24 hrs by disc diffusion method; format: functional
Penicillium chrysogenum = assay: Antifungal activity against Penicillium chrysogenum AUCC-530 assessed as diameter of inhibition zone incubated for 24 hrs by disc diffusion method; format: functional
Clostridium tetani = assay: Antibacterial activity against Clostridium tetani MTCC 449 assessed as bacterial growth inhibition by broth microdilution method; format: functional
Aspergillus fumigatus = assay: Antifungal activity against Aspergillus fumigatus MTCC 227 assessed as fungal growth inhibition by broth microdilution method; format: functional
[10] = tested on: Mycobacterium tuberculosis; assay: Antitubercular activity against Mycobacterium tuberculosis H37Rv assessed as bacterial growth inhibition at 250 ug/ml; format: functional
[11] = tested on: Mycobacterium tuberculosis; assay: Antitubercular activity against Mycobacterium tuberculosis H37Rv assessed as bacterial growth inhibition at 100 ug/ml; format: functional
Plasmodium falciparum = assay: microbe, parasite or virus in culture
Bacillus subtilis = assay: Antibacterial activity against Bacillus subtilis assessed as diameter of inhibition zone at 100 ug/ml by disc diffusion method; format: functional; settings: read-out: DIZ
Staphylococcus aureus [12] = assay: Antibacterial activity against Staphylococcus aureus assessed as diameter of inhibition zone at 100 ug/ml by disc diffusion method; format: functional; settings: read-out: DIZ
Klebsiella pneumoniae [13] = assay: Antibacterial activity against Klebsiella pneumoniae assessed as diameter of inhibition zone at 100 ug/ml by disc diffusion method; format: functional; settings: read-out: DIZ
Escherichia coli [14] = assay: Antibacterial activity against Escherichia coli assessed as diameter of inhibition zone at 100 ug/ml by disc diffusion method; format: functional; settings: read-out: DIZ
[15] = tested on: Mycobacterium tuberculosis; assay: Antitubercular activity against Mycobacterium tuberculosis H37Rv assessed as bacterial growth inhibition incubated for 24 hrs by MABA assay; format: functional
Staphylococcus aureus [16] = assay: Antibacterial activity against Staphylococcus aureus assessed as inhibition of bacterial growth; format: functional
Salmonella typhimurium = assay: Antibacterial activity against Salmonella typhimurium MTCC 98 assessed as bacterial growth inhibition by broth microdilution method; format: functional, Salmonella enterica subsp. enterica serovar Typhimurium; settings: Salmonella enterica
Staphylococcus aureus [17] = assay: Antibacterial activity against Staphylococcus aureus assessed as bacterial growth inhibition by broth microdilution method; format: functional
Escherichia coli [18] = assay: Antibacterial activity against Escherichia coli assessed as bacterial growth inhibition by broth microdilution method; format: functional
Klebsiella pneumoniae [19] = assay: Antibacterial activity against Klebsiella pneumoniae assessed as bacterial growth inhibition by broth microdilution method; format: functional
Pseudomonas aeruginosa = assay: Antibacterial activity against Pseudomonas aeruginosa assessed as bacterial growth inhibition by broth microdilution method; format: functional
Escherichia coli [20] = assay: Antibacterial activity against Escherichia coli ATCC 25922 assessed as diameter of inhibition zone at 50 mg/ml incubated for 24 hrs by paper disk diffusion method; format: functional; settings: read-out: DIZ
HepG2 [21] = assay: Anticancer activity against human HepG2 cells assessed as reduction in cell viability incubated for 48 hrs by MTT assay; format: functional, cell-based; settings: HepG2, 48 h
Alpha-glucosidase = Alpha-glucosidase (Saccharomyces cerevisiae S288c, UniProt P53341+P38158+P07265); assay: Inhibition of Saccharomyces cerevisiae alpha-glucosidase assessed as decrease in release of p-nitrophenol using pNPG as substrate incubated for 10 mins by spectroscopic analysis; format: protein assay

In the case of `NNc1ncnc2c1C(c1cn(-c3ccccc3)nc1-c1ccccc1)c1c(ccc3ccccc13)O2` (stereo unspecified), the IC50 (HepG2 [1]) is reported as 9.26 µM, the IC50 (MCF7 [2]) is reported as 9.89 µM and the IC50 [3] is reported as 4.9 µM.

Work on `N#CC(C#N)=C1c2c(-c3ccccc3)n[nH]c2Oc2c1c(-c1ccccc1O)[nH]c1nc(=O)[nH]c(=O)c2-1` yielded an IC50 (HCT-116) of 18.5 µM, an IC50 (HepG2 [4]) of 21.9 µM and an IC50 (MCF7 [5]) of 22.6 µM.

With `Nc1ncnc2c1C(c1ccccc1O)c1ccc(O)cc1O2` (stereo unspecified) the IC50 [6] was 36.82 µg/mL (≈ 120 µM), the IC50 [7] was 53.54 µg/mL (≈ 174 µM) and the IC50 [8] was 50.32 µg/mL (≈ 164 µM).

For `CCOC(=O)n1c(=O)nc2c3c(ncn21)Oc1c(c(=O)oc2ccccc12)C3c1ccc(Cl)cc1` (stereo unspecified), the “diameter of the inhibition zone (DIZ)” value (Staphylococcus aureus [9]) was 18 mm, the “diameter of the inhibition zone (DIZ)” value (Bacillus cereus) was 19 mm and the “diameter of the inhibition zone (DIZ)” value (Serratia marcescens) was 21 mm. The “diameter of the inhibition zone (DIZ)” value (Proteus mirabilis) was 21 mm, the “diameter of the inhibition zone (DIZ)” value (Aspergillus ochraceus) was 15 mm and the “diameter of the inhibition zone (DIZ)” value (Penicillium chrysogenum) was 13 mm.

`CCOC(=O)C1=C(N)Oc2[nH]c(=S)[nH]c(=O)c2C1c1c(C)nn(-c2ccccc2)c1-n1ccnc1` (stereo unspecified) showed an MIC (Clostridium tetani) of 100 µg/mL (≈ 203 µM), an MIC (Aspergillus fumigatus) of 200 µg/mL (≈ 407 µM) and an inhibition at 250 µg/mL [10] of 37%. It also gave an inhibition at 100 µg/mL [11] of 30% and an IC50 (Plasmodium falciparum) of 0.97 µg/mL (≈ 1.97 µM).

Work on `CCOC(=O)C1=C(C)Oc2nc(C)n(Cc3cn(-c4ccc([N+](=O)[O-])cc4)nn3)c(=O)c2C1c1ccc([N+](=O)[O-])cc1` (stereo unspecified) yielded a zone of inhibition at 100 µg/mL (Bacillus subtilis) of 12.5 mm, a zone of inhibition at 100 µg/mL (Staphylococcus aureus [12]) of 14 mm and a zone of inhibition at 100 µg/mL (Klebsiella pneumoniae [13]) of 14 mm. The zone of inhibition at 100 µg/mL (Escherichia coli [14]) was 14.5 mm.

Work on `O=C(O)c1cn(C2CC2)c2cc(N3CCNCC3)c(F)cc2c1=O` [CIPROFLOXACIN] yielded an MIC [15] of 3.12 µg/mL (≈ 9.43 µM), an MIC (Staphylococcus aureus [16]) of 50 µg/mL (≈ 151 µM) and an MIC (Salmonella typhimurium) of 25 µg/mL (≈ 75.4 µM). It also gave an MIC (Staphylococcus aureus [17]) of 3.12 µg/mL (≈ 9.42 µM), an MIC (Escherichia coli [18]) of 3.12 µg/mL (≈ 9.42 µM) and an MIC (Klebsiella pneumoniae [19]) of 3.12 µg/mL (≈ 9.42 µM). It also gave an MIC (Pseudomonas aeruginosa) of 3.12 µg/mL (≈ 9.42 µM).

`O=c1[nH]c(-c2ccccc2)nc2c1C(c1ccc(Cl)cc1)C=C(c1cc3ccccc3oc1=O)O2` (stereo unspecified) showed a zone of inhibition at 50000 µg/mL (Escherichia coli [20]) of 10 mm.

For `CCOC(=O)c1nc2c3c(ncn2n1)Oc1c(c(=O)oc2ccccc12)C3c1ccc(Cl)cc1` (stereo unspecified), the “diameter of the inhibition zone (DIZ)” value (Staphylococcus aureus [9]) was 18 mm, the “diameter of the inhibition zone (DIZ)” value (Bacillus cereus) was 19 mm and the “diameter of the inhibition zone (DIZ)” value (Serratia marcescens) was 21 mm. The “diameter of the inhibition zone (DIZ)” value (Proteus mirabilis) was 21 mm, the “diameter of the inhibition zone (DIZ)” value (Aspergillus ochraceus) was 15 mm and the “diameter of the inhibition zone (DIZ)” value (Penicillium chrysogenum) was 13 mm.

Compound `COc1ccc(C2CC(=O)Oc3[nH]c(=O)[nH]c(=O)c32)cc1OC` (stereo unspecified) has an IC50 (HepG2 [21]) of 8.9 µM.

In the case of `O=c1oc2ccccc2c2c1C(c1ccc(Cl)cc1)c1c(ncn3nc(CCl)nc13)O2` (stereo unspecified), the “diameter of the inhibition zone (DIZ)” value (Staphylococcus aureus [9]) is reported as 18 mm, the “diameter of the inhibition zone (DIZ)” value (Bacillus cereus) is reported as 19 mm and the “diameter of the inhibition zone (DIZ)” value (Serratia marcescens) is reported as 21 mm. The “diameter of the inhibition zone (DIZ)” value (Proteus mirabilis) was 21 mm, the “diameter of the inhibition zone (DIZ)” value (Aspergillus ochraceus) was 15 mm and the “diameter of the inhibition zone (DIZ)” value (Penicillium chrysogenum) was 13 mm.

Compound `COc1cc(/C=C/C(=O)C2=C(/C=C/c3ccc(O)c(OC)c3)Oc3[nH]c(=O)[nH]c(=O)c3C2c2cccc([N+](=O)[O-])c2)ccc1O` (stereo unspecified) has an IC50 (Alpha-glucosidase) of 9.7 µM.

`N=c1c2c(ncn1-c1ccccc1O)Oc1ccc3ccccc3c1C2c1cn(-c2ccccc2)nc1-c1ccccc1` (stereo unspecified) showed an IC50 (HepG2 [1]) of 3.41 µM, an IC50 (MCF7 [2]) of 2.67 µM and an IC50 [3] of 4.9 µM.

In the case of `Cc1ccc(S(=O)(=O)Nn2cnc3c(c2=N)C(c2cn(-c4ccccc4)nc2-c2ccccc2)c2c(ccc4ccccc24)O3)cc1` (stereo unspecified), the IC50 (HepG2 [1]) is reported as 10 µM, the IC50 (MCF7 [2]) is reported as 9.29 µM and the IC50 [3] is reported as 4.9 µM.

`COc1ccc(C2CC(=O)Oc3[nH]c(=O)[nH]c(=O)c32)cc1` (stereo unspecified) gave an IC50 (HepG2 [21]) of 10.6 µM.

`N#CC1=C(N)Oc2[nH]nc(-c3ccccc3)c2C1c1coc2ccccc2c1=O` (stereo unspecified) gave an IC50 (HCT-116) of 54.1 µg/mL, an IC50 (HepG2 [4]) of 57.3 µg/mL and an IC50 (MCF7 [5]) of 69.8 µg/mL.
